Source: US20110045101A1, “FUNGICIDAL SUBSTITUTED AZOLES” (E.I. Du Pont De Nemours and Company, priority 2009, published 2011)
Marks after values point to notes of the source that are not given here.

Legend:
Type in all cases: in vivo
Conditions in all cases: 100 = 100% disease control
[1] = system: Erysiphe graminis f. sp. tritici; assay: Test J: wheat powdery mildew on wheat seedlings, sprayed the day before inoculation, visual disease rating
How it was run: (§1)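 Compounds were dissolved in acetone (3% of final volume), then suspended in 50/50 acetone/purified water with 250 ppm Trem® 014 surfactant. Suspensions at 200 ppm (some at 40 ppm) were sprayed to run-off, 200 ppm being equivalent to 500 g/ha.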

[2] = system: Puccinia recondita f. sp. tritici; assay: Test I: wheat leaf rust on wheat seedlings, sprayed the day before inoculation, visual disease rating
How it was run: as §1

Botrytis cinerea = assay: Test C: tomato Botrytis on tomato seedlings, sprayed the day before inoculation, visual disease rating
How it was run: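 Compounds were dissolved in acetone (3% of final volume), then suspended in 50/50 acetone/purified water containing 250 ppm polyhydric alcohol ester surfactant. Suspensions were sprayed to run-off on tomato seedlings at 200 ppm, equivalent to 500 g/ha, or at 40 ppm where marked.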

Alternaria solani = assay: Test D: tomato early blight, sprayed the day before inoculation, visual disease rating
How it was run: as §1

[3] = system: Puccinia recondita f. sp. tritici; assay: Test H: wheat leaf rust, test suspension sprayed after inoculation of wheat seedlings, visual disease rating
How it was run: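 Wheat seedlings inoculated with P. recondita spores, held 24 h saturated at 20 °C, then 2 days in growth chamber at 20 °C; compound suspension (acetone/water with Trem 014) sprayed to run-off afterwards. Rated visually; 200 ppm (≈500 g/ha) unless marked *, which denotes 40 ppm.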

Septoria tritici = assay: Test G: wheat leaf blotch on wheat seedlings, sprayed the day before inoculation, visual disease rating
How it was run: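 Disease was rated visually after Septoria tritici inoculation, 48 h saturated incubation at 24°C and 19 days in a 20°C growth chamber. Inoculation followed one day after run-off spraying of seedlings with compound at 200 ppm (≈500 g/ha) or, where marked, 40 ppm, formulated in acetone/water with surfactant.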

Septoria nodorum = assay: Test F: wheat glume blotch on wheat seedlings, sprayed the day before inoculation, visual disease rating
How it was run: as §1

[4] = 200 ppm, 0 = no control relative to controls

With Fc1cc(-n2c(Cl)nc(Cl)c2-c2cccc(Br)n2)ccc1Cl [compound 433] the “Test J disease control rating” value [1, 4] was 0%, the “Test I disease control rating” value [2, 4] was 0% and the “Test C disease control rating” value (Botrytis cinerea; [4]) was 50%. The “Test D disease control rating” value (Alternaria solani; [4]) was 0%, the “Test H disease control rating” value [3, 4] was 0% and the “Test G disease control rating” value (Septoria tritici; [4]) was 92%. The “Test F disease control rating” value (Septoria nodorum; [4]) was 0%.
COc1cc(F)c(-n2nnc(Cl)c2-c2ccc(Cl)cc2)c(F)c1 [compound 478] was tested, and the “Test J disease control rating” value [1, 4] was 97%, the “Test I disease control rating” value [2, 4] was 96% and the “Test C disease control rating” value (Botrytis cinerea; [4]) was 100%. For the same molecule, the “Test D disease control rating” value (Alternaria solani; [4]) was 93%, the “Test H disease control rating” value [3, 4] was 0% and the “Test G disease control rating” value (Septoria tritici; [4]) was 93%. The “Test F disease control rating” value (Septoria nodorum; [4]) was 0%.
For COc1ccc(F)c(-c2c(C)nc(Br)n2-c2ccc(Cl)nc2)c1F [compound 735], the “Test J disease control rating” value [1, 4] was 100%, the “Test I disease control rating” value [2, 4] was 100% and the “Test C disease control rating” value (Botrytis cinerea; [4]) was 100%. The “Test D disease control rating” value (Alternaria solani; [4]) was 100%, the “Test H disease control rating” value [3, 4] was 9% and the “Test G disease control rating” value (Septoria tritici; [4]) was 100%. The “Test F disease control rating” value (Septoria nodorum; [4]) was 99%.
With Fc1ccc(-n2c(Br)nc(Br)c2-c2ccc(Cl)cc2)c(Cl)c1 [compound 306] the “Test J disease control rating” value [1, 4] was 99%, the “Test I disease control rating” value [2, 4] was 91% and the “Test C disease control rating” value (Botrytis cinerea; [4]) was 99%. The “Test D disease control rating” value (Alternaria solani; [4]) was 96%, the “Test H disease control rating” value [3, 4] was 6% and the “Test G disease control rating” value (Septoria tritici; [4]) was 94%. For the same molecule, the “Test F disease control rating” value (Septoria nodorum; [4]) was 0%.
COc1cc(F)c(-c2c(Cl)nc(Br)n2Cc2ccc(C)cc2)c(F)c1 [compound 292] was tested, and the “Test J disease control rating” value ([1]; 200 ppm, 0 = no control) was 99%, the “Test I disease control rating” value ([2]; 200 ppm, 0 = no control) was 99% and the “Test C disease control rating” value (Botrytis cinerea; 200 ppm, 0 = no control) was 99%. The “Test D disease control rating” value (Alternaria solani; 200 ppm, 0 = no control) was 98%, the “Test H disease control rating” value ([3]; 200 ppm, 0 = no control) was 11% and the “Test G disease control rating” value (Septoria tritici; 200 ppm, 0 = no control) was 93%. For the same molecule, the “Test F disease control rating” value (Septoria nodorum; 200 ppm, 0 = no control) was 69%.
In the case of Cc1ccc(-n2c(Cl)nc(C)c2-c2c(F)ccc(F)c2F)cc1 [compound 496], the “Test J disease control rating” value ([1]; 40 ppm (marked *)) is reported as 97* %, the “Test I disease control rating” value ([2]; 40 ppm (marked *)) is reported as 0* % and the “Test C disease control rating” value (Botrytis cinerea; 40 ppm (marked *)) is reported as 93* %. The “Test D disease control rating” value (Alternaria solani; 40 ppm (marked *)) was 99* %, the “Test H disease control rating” value ([3]; 40 ppm (marked *)) was 0* % and the “Test G disease control rating” value (Septoria tritici; 40 ppm (marked *)) was 6* %. For the same molecule, the “Test F disease control rating” value (Septoria nodorum; 40 ppm (marked *)) was 0* %.
COc1ccc(-n2c(Br)nc(C)c2-c2c(F)cccc2F)cn1 [compound 719] was tested, and the “Test J disease control rating” value [1, 4] was 100%, the “Test I disease control rating” value [2, 4] was 100% and the “Test C disease control rating” value (Botrytis cinerea; [4]) was 99%. The “Test D disease control rating” value (Alternaria solani; [4]) was 100%, the “Test H disease control rating” value [3, 4] was 99% and the “Test G disease control rating” value (Septoria tritici; [4]) was 99%. For the same molecule, the “Test F disease control rating” value (Septoria nodorum; [4]) was 98%.
With Fc1cc(-n2cnc(Br)c2-c2c(F)ccc(F)c2F)ccc1Cl [compound 342] the “Test J disease control rating” value [1, 4] was 99%, the “Test I disease control rating” value [2, 4] was 98% and the “Test C disease control rating” value (Botrytis cinerea; [4]) was 100%. For the same molecule, the “Test D disease control rating” value (Alternaria solani; [4]) was 99%, the “Test H disease control rating” value [3, 4] was 0% and the “Test G disease control rating” value (Septoria tritici; [4]) was 95%. The “Test F disease control rating” value (Septoria nodorum; [4]) was 0%.
For COc1cc(F)c(-c2c(Br)nc(Cl)n2-c2ccc(OC)nc2)c(F)c1 [compound 710], the “Test J disease control rating” value [1, 4] was 98%, the “Test I disease control rating” value [2, 4] was 100% and the “Test C disease control rating” value (Botrytis cinerea; [4]) was 100%. For the same molecule, the “Test D disease control rating” value (Alternaria solani; [4]) was 100%, the “Test H disease control rating” value [3, 4] was 99% and the “Test G disease control rating” value (Septoria tritici; [4]) was 98%. The “Test F disease control rating” value (Septoria nodorum; [4]) was 100%.
In the case of Cc1ccc(-n2c(C)nc(Cl)c2-c2c(F)cc(OC(F)F)cc2F)cc1 [compound 631], the “Test J disease control rating” value [1, 4] is reported as 100%, the “Test I disease control rating” value [2, 4] is reported as 99% and the “Test C disease control rating” value (Botrytis cinerea; [4]) is reported as 99%. The “Test D disease control rating” value (Alternaria solani; [4]) was 99%, the “Test H disease control rating” value [3, 4] was 40% and the “Test G disease control rating” value (Septoria tritici; [4]) was 100%. The “Test F disease control rating” value (Septoria nodorum; [4]) was 0%.
With Cc1nc(Cl)c(-c2ccc(Cl)cc2)n1-c1ccc(F)cc1Cl [compound 422] the “Test J disease control rating” value [1, 4] was 100%, the “Test I disease control rating” value [2, 4] was 99% and the “Test C disease control rating” value (Botrytis cinerea; [4]) was 100%. For the same molecule, the “Test D disease control rating” value (Alternaria solani; [4]) was 100%, the “Test H disease control rating” value [3, 4] was 0% and the “Test G disease control rating” value (Septoria tritici; [4]) was 100%. For the same molecule, the “Test F disease control rating” value (Septoria nodorum; [4]) was 60%.
COc1cc(F)c(-c2c(Cl)nc(Cl)n2-c2ccc(C(F)(F)F)nc2)c(F)c1 [compound 488] was tested, and the “Test J disease control rating” value [1, 4] was 100%, the “Test I disease control rating” value [2, 4] was 100% and the “Test C disease control rating” value (Botrytis cinerea; [4]) was 99%. The “Test D disease control rating” value (Alternaria solani; [4]) was 100%, the “Test H disease control rating” value [3, 4] was 41% and the “Test G disease control rating” value (Septoria tritici; [4]) was 93%. For the same molecule, the “Test F disease control rating” value (Septoria nodorum; [4]) was 100%.
With Fc1cccc(F)c1-c1c(Cl)nc(Cl)n1-c1ccccc1 [compound 591] the “Test J disease control rating” value [1, 4] was 98%, the “Test I disease control rating” value [2, 4] was 98% and the “Test C disease control rating” value (Botrytis cinerea; [4]) was 100%. For the same molecule, the “Test D disease control rating” value (Alternaria solani; [4]) was 100%, the “Test H disease control rating” value [3, 4] was 96% and the “Test G disease control rating” value (Septoria tritici; [4]) was 97%. For the same molecule, the “Test F disease control rating” value (Septoria nodorum; [4]) was 0%.
Fc1cc(F)c(-c2c(Cl)nc(Cl)n2-c2ccc(OC(F)(F)F)cc2)c(F)c1 [compound 600] was tested, and the “Test J disease control rating” value [1, 4] was 99%, the “Test I disease control rating” value [2, 4] was 0% and the “Test C disease control rating” value (Botrytis cinerea; [4]) was 86%. For the same molecule, the “Test D disease control rating” value (Alternaria solani; [4]) was 100%, the “Test H disease control rating” value [3, 4] was 7% and the “Test G disease control rating” value (Septoria tritici; [4]) was 94%. For the same molecule, the “Test F disease control rating” value (Septoria nodorum; [4]) was 0%.
For COc1ccc(F)c(-c2c(C)nc(Cl)n2-c2ccc(Cl)cc2)c1F [compound 526], the “Test J disease control rating” value [1, 4] was 100%, the “Test I disease control rating” value [2, 4] was 100% and the “Test C disease control rating” value (Botrytis cinerea; [4]) was 100%. For the same molecule, the “Test D disease control rating” value (Alternaria solani; [4]) was 100%, the “Test H disease control rating” value [3, 4] was 0% and the “Test G disease control rating” value (Septoria tritici; [4]) was 99%. The “Test F disease control rating” value (Septoria nodorum; [4]) was 100%.
In the case of N#Cc1ccc(F)c(-c2c(Cl)nc(Br)n2-c2ccc(Cl)cc2)c1F [Compound 419, 3-[2-bromo-4-chloro-1-(4-chlorophenyl)-1H-imidazol-5-yl]-2,4-difluorobenzonitrile], the pest or weed control at 200 ppm ([1]; Blumeria graminis, 168 h, 200 ppm, 0 = no control relative to controls) is reported as 99%, the pest or weed control at 200 ppm ([2]; Puccinia recondita, 168 h, 200 ppm, 0 = no control relative to controls) is reported as 97% and the pest or weed control at 200 ppm (Botrytis cinerea; Botrytis cinerea, 120 h, 200 ppm, 0 = no control relative to controls) is reported as 100%. The pest or weed control at 200 ppm (Alternaria solani; Alternaria solani, 168 h, 200 ppm, 0 = no control relative to controls) was 100%, the pest or weed control at 200 ppm ([3]; Puccinia recondita, 96 h, 200 ppm, 0 = no control relative to controls) was 0% and the pest or weed control at 200 ppm (Septoria tritici; Zymoseptoria tritici, 504 h, 200 ppm, 0 = no control relative to controls) was 100%. For the same molecule, the pest or weed control at 200 ppm (Septoria nodorum; Parastagonospora nodorum, 264 h, 200 ppm, 0 = no control relative to controls) was 100%.
In the case of COC(=O)c1ccc(-n2c(Cl)nc(Cl)c2-c2c(F)cccc2F)cc1 [compound 649], the “Test J disease control rating” value ([1]; 40 ppm (marked *)) is reported as 0* %, the “Test I disease control rating” value ([2]; 40 ppm (marked *)) is reported as 61* % and the “Test C disease control rating” value (Botrytis cinerea; 40 ppm (marked *)) is reported as 0* %. For the same molecule, the “Test D disease control rating” value (Alternaria solani; 40 ppm (marked *)) was 0* %, the “Test H disease control rating” value ([3]; 40 ppm (marked *)) was 0* % and the “Test G disease control rating” value (Septoria tritici; 40 ppm (marked *)) was 97* %. For the same molecule, the “Test F disease control rating” value (Septoria nodorum; 40 ppm (marked *)) was 0* %.
COc1ccc(F)c(-c2c(Cl)nc(C)n2-c2ccc(C#N)cc2)c1F [compound 615] was tested, and the “Test J disease control rating” value [1, 4] was 100%, the “Test I disease control rating” value [2, 4] was 99% and the “Test C disease control rating” value (Botrytis cinerea; [4]) was 100%. The “Test D disease control rating” value (Alternaria solani; [4]) was 100%, the “Test H disease control rating” value [3, 4] was 0% and the “Test G disease control rating” value (Septoria tritici; [4]) was 100%. The “Test F disease control rating” value (Septoria nodorum; [4]) was 0%.
